Source: patent US20240018123A1, “COMPOUND FOR INHIBITING OR DISINTEGRATING ANDROGEN RECEPTOR, AND PHARMACEUTICAL USE THEREOF” (KOREA RESEARCH INSTITUTE OF CHEMICAL TECHNOLOGY, priority 2020, published 2024)
Where two headings read alike, the source gives them in different places.

Assays:
[1] = system: LNCaP cells; assay: Cytotoxicity assessment (Cell-titer-glo cell viability), LNCaP
Procedure: In order to evaluate the androgen receptor (AR) cytotoxicity of the compounds according to the present invention, the following experiment was conducted. Specifically, 1.5×10^3 (LNCaP) or 4×10^3 (VCaP, 22RV1), respectively, of LNCaP, VCaP, and 22RV1 cells were injected into each well of a 96-well plate. The next day, each well was treated with the compound at a final concentration of 3 nM, 10 nM, 30 nM, 100 nM, 300 nM, 1 μM, 3 μM, and 10 μM. […] After 6 days of treatment, Cell-titer-glo (promega) was treated and reacted for 10 minutes, and cell viability was measured with a multimode plate reader (PerkinElmer, Inc.), and the change was quantified compared to when DMSO was treated.

[2] = target: T1, Androgen receptor (AR) (Homo sapiens, UniProt P10275, T878A); assay: Assessment of AR proteolytic activity (Western blotting of LNCap cell lysates); format: cell-based; details: 24 hours of treatment, Western blotting quantified with Image J
T1 construct: 5.5×10^5 LNCap cells were injected into each well of a 6-well plate; endogenous in cells; host or cells: LNCaP
T1 sequence (P10275 1-920 T878A): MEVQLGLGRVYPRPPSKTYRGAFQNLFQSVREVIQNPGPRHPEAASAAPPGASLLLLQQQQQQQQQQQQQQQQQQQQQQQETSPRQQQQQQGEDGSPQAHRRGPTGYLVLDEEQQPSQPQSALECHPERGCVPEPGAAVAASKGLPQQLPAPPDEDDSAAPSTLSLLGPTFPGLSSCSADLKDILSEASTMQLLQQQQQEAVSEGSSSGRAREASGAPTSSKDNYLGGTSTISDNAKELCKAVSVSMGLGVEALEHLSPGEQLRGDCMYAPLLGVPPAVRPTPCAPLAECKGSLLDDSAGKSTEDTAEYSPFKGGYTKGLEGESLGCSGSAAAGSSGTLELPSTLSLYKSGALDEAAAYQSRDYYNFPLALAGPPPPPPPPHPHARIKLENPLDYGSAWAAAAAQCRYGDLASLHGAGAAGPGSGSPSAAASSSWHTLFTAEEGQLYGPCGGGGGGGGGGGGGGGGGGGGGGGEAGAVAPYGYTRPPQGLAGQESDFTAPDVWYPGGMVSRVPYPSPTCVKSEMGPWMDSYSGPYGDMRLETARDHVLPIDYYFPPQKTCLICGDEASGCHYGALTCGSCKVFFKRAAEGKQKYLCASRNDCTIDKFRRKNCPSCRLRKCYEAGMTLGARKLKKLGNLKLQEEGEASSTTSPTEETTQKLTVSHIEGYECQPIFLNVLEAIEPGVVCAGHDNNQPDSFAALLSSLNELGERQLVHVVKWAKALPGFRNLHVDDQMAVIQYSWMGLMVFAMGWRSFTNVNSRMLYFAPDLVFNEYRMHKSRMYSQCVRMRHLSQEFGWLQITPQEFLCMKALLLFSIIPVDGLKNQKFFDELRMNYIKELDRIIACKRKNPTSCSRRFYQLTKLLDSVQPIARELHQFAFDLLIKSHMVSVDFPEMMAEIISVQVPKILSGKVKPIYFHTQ
Procedure, shortened: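 AR degradation read by Western blot densitometry on RIPA lysates (pH 7.5, protease inhibitor cocktail). Lysates came from LNCap cells, 5.5×10^5 per well, exposed to compound for 24 hours.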

[3] = system: VCaP cells
[4] = read-out: LNCAP (CC50), LNCaP cells, 6 days of treatment, Cell-titer-glo, vs DMSO

| SMILES | CC50 [1, 4] | Degradation (1 μM treated in LNCaP, % AR remaining) [2] | CC50 ([1]; Homo sapiens, LNCaP, 144 h, read-out: LNCAP (CC50, μM)) | remaining activity at 1 µM ([2]; read-out: Degradation (1 μM treated in LNCaP, % AR remaining)) | CC50 [3] |
| --- | --- | --- | --- | --- | --- |
| CC1(C)C(NC(=O)c2ccc(OCCOCCOCCOCCOCCOCCCCNC(=O)C3CCN(c4ccc5nnn(C6CCC(=O)NC6=O)c(=O)c5c4)CC3)cc2)C(C)(C)C1Oc1ccc(C#N)c(Cl)c1 (centres unmarked) [Example 15, N-(1-(4-(((1r,3r)-3-(3-chloro-4-cyanophenoxy)-2,2,4,4-tetramethylcyclobutyl)carbamoyl)phenoxy)-3,6,9,12,15-pentaoxanonadecan-19-yl)-1-(3-(2,6-dioxopiperidin-3-yl)-4-oxo-3,4-dihydrobenzo[d][1,2,3]triazin-6-yl)piperidine-4-carboxamide] | 1.31 µM | 13.6% | – | – | – |
| CC1(C)[C@H](NC(=O)c2ccc(N3CCN(CC4CCN(C(=O)COc5ccc6nnn(C7CCC(=O)NC7=O)c(=O)c6c5)CC4)CC3)cc2)C(C)(C)[C@H]1Oc1ccc(C#N)c(Cl)c1 (some centres unmarked) [Example 13, N-((1r,3r)-3-(3-chloro-4-cyanophenoxy)-2,2,4,4-tetramethylcyclobutyl)-4-(4-((1-(2-((3-(2,6-dioxopiperidin-3-yl)-4-oxo-3,4-dihydrobenzo[d][1,2,3]triazin-6-yl)oxy)acetyl)piperidin-4-yl)methyl)piperazin-1-yl)benzamide] | – | – | 0.803 µM | 8.3% | – |
| CC1(C)C(NC(=O)c2ccc(C#CCC3CCN(CC4CCN(c5ccc6nnn(C7CCC(=O)NC7=O)c(=O)c6c5)CC4)CC3)cc2)C(C)(C)C1Oc1ccc(C#N)c(Cl)c1 (centres unmarked) [Example 88, N-((1r,3r)-3-(3-chloro-4-cyanophenoxy)-2,2,4,4-tetramethylcyclobutyl)-4-(3-(1-((1-(3-(2,6-dioxopiperidin-3-yl)-4-oxo-3,4-dihydrobenzo[d][1,2,3]triazin-6-yl)piperidin-4-yl)methyl)piperidin-4-yl)prop-1-yn-1-yl)benzamide] | – | 14% | – | – | 14.5 nM |
| CC1(C)C(NC(=O)c2ccc(C#CCC3CCN(c4ccc5nnn(C6CCC(=O)NC6=O)c(=O)c5c4)CC3)cc2)C(C)(C)C1Oc1ccc(C#N)c(Cl)c1 (centres unmarked) [Example 85, N-((1r,3r)-3-(3-chloro-4-cyanophenoxy)-2,2,4,4-tetramethylcyclobutyl)-4-(3-(1-(3-(2,6-dioxopiperidin-3-yl)-4-oxo-3,4-dihydrobenzo[d][1,2,3]triazin-6-yl)piperidin-4-yl)prop-1-yn-1-yl)benzamide] | – | 21% | – | – | 171 nM |
| CC1(C)[C@H](NC(=O)c2ccc(N3CCN(C4CC5(CCN(C(=O)C6CN(c7ccc8nnn(C9CCC(=O)NC9=O)c(=O)c8c7)C6)CC5)C4)CC3)cc2)C(C)(C)[C@H]1Oc1ccc(C#N)c(Cl)c1 (some centres unmarked) [Example 21, N-((1r,3r)-3-(3-chloro-4-cyanophenoxy)-2,2,4,4-tetramethylcyclobutyl)-4-(4-(7-(1-(3-(2,6-dioxopiperidin-3-yl)-4-oxo-3,4-dihydrobenzo[d][1,2,3]triazin-6-yl)azetidine-3-carbonyl)-7-azaspiro[3.5]nonan-2-yl)piperazin-1-yl)benzamide] | 0.312 µM | 21% | – | – | – |
| CC1(C)[C@H](NC(=O)c2ccc(N3CC4CC3CN4CC3CCN(C(=O)C4CN(c5ccc6nnn(C7CCC(=O)NC7=O)c(=O)c6c5)C4)CC3)cc2)C(C)(C)[C@H]1Oc1ccc(C#N)c(Cl)c1 (some centres unmarked) [Example 73, N-((1r,3r)-3-(3-chloro-4-cyanophenoxy)-2,2,4,4-tetramethylcyclobutyl)-4-(5-((1-(1-(3-(2,6-dioxopiperidin-3-yl)-4-oxo-3,4-dihydrobenzo[d][1,2,3]triazin-6-yl)azetidine-3-carbonyl)piperidin-4-yl)methyl)-2,5-diazabicyclo[2.2.1]heptan-2-yl)benzamide] | – | 40% | – | – | 79.5 nM |
| CC1(C)[C@H](NC(=O)c2ccc(N3CCN(C4CC5(CCN(C(=O)COc6ccc7nnn(C8CCC(=O)NC8=O)c(=O)c7c6)CC5)C4)CC3)cc2)C(C)(C)[C@H]1Oc1ccc(C#N)c(Cl)c1 (some centres unmarked) [Example 18, N-((1r,3r)-3-(3-chloro-4-cyanophenoxy)-2,2,4,4-tetramethylcyclobutyl)-4-(4-(7-(2-((3-(2,6-dioxopiperidin-3-yl)-4-oxo-3,4-dihydrobenzo[d][1,2,3]triazin-6-yl)oxy)acetyl)-7-azaspiro[3.5]nonan-2-yl)piperazin-1-yl)benzamide] | 0.196 µM | 23% | – | – | – |
| CC1(C)C(NC(=O)c2ccc(N3CCN(C(=O)CN4CCN(c5ccc6nnn(C7CCC(=O)NC7=O)c(=O)c6c5)CC4)CC3)cc2)C(C)(C)C1Oc1ccc(C#N)c(Cl)c1 (centres unmarked) [Example 57, N-((1r,3r)-3-(3-chloro-4-cyanophenoxy)-2,2,4,4-tetramethylcyclobutyl)-4-(4-(2-(4-(3-(2,6-dioxopiperidin-3-yl)-4-oxo-3,4-dihydrobenzo[d][1,2,3]triazin-6-yl)piperazin-1-yl)acetyl)piperazin-1-yl)benzamide] | – | 13.3% | – | – | 225 nM |
| CC1(C)C(NC(=O)c2ccc(N3CCN(CC4(O)CCN(C(=O)C5CN(c6ccc7nnn(C8CCC(=O)NC8=O)c(=O)c7c6)C5)CC4)CC3)cc2)C(C)(C)C1Oc1ccc(C#N)c(Cl)c1 (centres unmarked) [Example 56, N-((1r,3r)-3-(3-chloro-4-cyanophenoxy)-2,2,4,4-tetramethylcyclobutyl)-4-(4-((1-(1-(3-(2,6-dioxopiperidin-3-yl)-4-oxo-3,4-dihydrobenzo[d][1,2,3]triazin-6-yl)azetidine-3-carbonyl)-4-hydroxypiperidin-4-yl)methyl)piperazin-1-yl)benzamide] | – | 21.3% | – | – | 36.1 nM |
| CC1(C)C(NC(=O)c2ccc(N3CCN(C(=O)COc4ccc5nnn(C6CCC(=O)NC6=O)c(=O)c5c4)CC3)cc2)C(C)(C)C1Oc1ccc(C#N)c(Cl)c1 (centres unmarked) [Example 41, N-((1r,3r)-3-(3-chloro-4-cyanophenoxy)-2,2,4,4-tetramethylcyclobutyl)-4-(4-(2-((3-(2,6-dioxopiperidin-3-yl)-4-oxo-3,4-dihydrobenzo[d][1,2,3]triazin-6-yl)oxy)acetyl)piperazin-1-yl)benzamide] | – | 12.3% | – | – | 20 nM |
| CC1(C)C(NC(=O)c2ccc(-n3cc(CC4CCN(C(=O)C5CN(c6ccc7nnn(C8CCC(=O)NC8=O)c(=O)c7c6)C5)CC4)nn3)cc2)C(C)(C)C1Oc1ccc(C#N)c(Cl)c1 (centres unmarked) [Example 90, N-((1r,3r)-3-(3-chloro-4-cyanophenoxy)-2,2,4,4-tetramethylcyclobutyl)-4-(4-((1-(1-(3-(2,6-dioxopiperidin-3-yl)-4-oxo-3,4-dihydrobenzo[d][1,2,3]triazin-6-yl)azetidine-3-carbonyl)piperidin-4-yl)methyl)-1H-1,2,3-triazol-1-yl)benzamide] | – | 5% | – | – | 19.6 nM |
| CC1(C)C(NC(=O)c2ccc(OCCOCCOCCOCCOCCOCCCCNC(=O)C3CN(c4ccc5nnn(C6CCC(=O)NC6=O)c(=O)c5c4)C3)cc2)C(C)(C)C1Oc1ccc(C#N)c(Cl)c1 (centres unmarked) [Example 16, N-(1-(4-(((1r,3r)-3-(3-chloro-4-cyanophenoxy)-2,2,4,4-tetramethylcyclobutyl)carbamoyl)phenoxy)-3,6,9,12,15-pentaoxanonadecan-19-yl)-1-(3-(2,6-dioxopiperidin-3-yl)-4-oxo-3,4-dihydrobenzo[d][1,2,3]triazin-6-yl)azetidine-3-carboxamide] | 1.95 µM | 12.6% | – | – | – |
| CC1(C)C(NC(=O)c2ccc(N3CCN(CC4(O)CCN(C(=O)CNc5ccc6nnn(C7CCC(=O)NC7=O)c(=O)c6c5)CC4)CC3)cc2)C(C)(C)C1Oc1ccc(C#N)c(Cl)c1 (centres unmarked) [Example 53, N-((1r,3r)-3-(3-chloro-4-cyanophenoxy)-2,2,4,4-tetramethylcyclobutyl)-4-(4-((1-((3-(2,6-dioxopiperidin-3-yl)-4-oxo-3,4-dihydrobenzo[d][1,2,3]triazin-6-yl)glycyl)-4-hydroxypiperidin-4-yl)methyl)piperazin-1-yl)benzamide] | – | 5.8% | – | – | 19.7 nM |
